Patent publication EP0638573A1, “Crystalline hydrates of cephalosporin and process for preparation thereof” (LUCKY LTD., priority 1993, dated 1995)
≈ marks a conversion by molar mass, not a printed value. Like-named read-outs stand apart in the source and are kept apart here.

How the values were obtained:
[1] = test system: Acinetobacter calcoaceticus ATCC15473; assay: MIC, doubling dilution method (NCCLS), Muller-Hinton agar; type: cell-based; settings: 20 hours at 37°C
Procedure: (§1) Antibiotic activities of the crystalline compound obtained in Example 1 were evaluated by way of determining the minimum inhibitory concentration(MIC) for the microorganisms listed in Table 2 in vitro.
(§2) The […] was determined in accordance with the doubling dilution method(NCCLS). After the test compound was dispersed in a Muller-Hinton agar medium, the medium was inoculated with 2µl of a test strain having 10⁷ CFU/ml and, then, incubated for 20 hours at 37°C.
(§3) For comparison, antibiotic abilities of the amorphous formula(I) cephalosporin obtained in Preparation Example were also determined as above; and are shown in Table 2.

[2] = test system: Bacillus cereus ATCC11778; assay: as above; type: cell-based; settings: 20 hours at 37°C
Procedure: as §1, §2, §3

[3] = test system: Bacillus megaterium ATTCC9885; assay: as above; type: cell-based; settings: Priestia megaterium, 20 hours at 37°C
Procedure: as §1, §2, §3

[4] = test system: Citrobacter freundii ATCC8090; assay: as above; type: cell-based; settings: 20 hours at 37°C
Procedure: as §1, §2, §3

[5] = test system: Enterobacter aerogenes ATCC29751; assay: as above; type: cell-based; settings: 20 hours at 37°C
Procedure: as §1, §2, §3

[6] = test system: Enterobacter cloacae ATCC27508; assay: as above; type: cell-based; settings: 20 hours at 37°C
Procedure: as §1, §2, §3

[7] = test system: Escherichia coli ATCC10536; assay: as above; type: cell-based; settings: 20 hours at 37°C
Procedure: as §1, §2, §3

[8] = test system: Escherichia coli ATCC25922; assay: as above; type: cell-based; settings: 20 hours at 37°C
Procedure: as §1, §2, §3

[9] = test system: Klebsiella pneumoniae ATCC10031; assay: as above; type: cell-based; settings: 20 hours at 37°C
Procedure: as §1, §2, §3

[10] = test system: Micrococcus luteus ATCC9341; assay: as above; type: cell-based; settings: 20 hours at 37°C
Procedure: as §1, §2, §3

[11] = test system: Morganella morganii ATCC8076h; assay: as above; type: cell-based; settings: 20 hours at 37°C
Procedure: as §1, §2, §3

[12] = test system: Proteus mirabilis ATCC25933; assay: as above; type: cell-based; settings: 20 hours at 37°C
Procedure: as §1, §2, §3

[13] = test system: Proteus vulgaris ATCC6059; assay: as above; type: cell-based; settings: 20 hours at 37°C
Procedure: as §1, §2, §3

[14] = test system: Providencia rettgeri ATCC9250; assay: as above; type: cell-based; settings: 20 hours at 37°C
Procedure: as §1, §2, §3

[15] = test system: Pseudomonas aeruginosa ATCC10145; assay: as above; type: cell-based; settings: 20 hours at 37°C
Procedure: as §1, §2, §3

[16] = test system: Pseudomonas aeruginosa ATCC25619; assay: as above; type: cell-based; settings: 20 hours at 37°C
Procedure: as §1, §2, §3

[17] = test system: Pseudomonas aeruginosa ATCC27853; assay: as above; type: cell-based; settings: 20 hours at 37°C
Procedure: as §1, §2, §3

[18] = test system: Salmonella typhimurium ATCC14028; assay: as above; type: cell-based; settings: 20 hours at 37°C
Procedure: as §1, §2, §3

[19] = test system: Serratia marcescens ATCC27117; assay: as above; type: cell-based; settings: 20 hours at 37°C
Procedure: as §1, §2, §3

[20] = test system: Shigella flexneri ATCC11836; assay: as above; type: cell-based; settings: 20 hours at 37°C
Procedure: as §1, §2, §3

[21] = test system: Shigella sonnei ATCC11060; assay: as above; type: cell-based; settings: 20 hours at 37°C
Procedure: as §1, §2, §3

[22] = test system: Staphylococcus aureus ATCC10537; assay: as above; type: cell-based; settings: 20 hours at 37°C
Procedure: as §1, §2, §3

[23] = test system: Staphylococcus aureus ATCC6538p; assay: as above; type: cell-based; settings: 20 hours at 37°C
Procedure: as §1, §2, §3

[24] = test system: Streptococcus epidermidis ATCC12228; assay: as above; type: cell-based; settings: 20 hours at 37°C
Procedure: as §1, §2, §3

[25] = test system: Streptococcus faecalis ATCC29212; assay: as above; type: cell-based; settings: 20 hours at 37°C
Procedure: as §1, §2, §3

[26] = Heat-stability test: storage at 50°C, decomposition by liquid chromatography; type: physicochemical
Procedure: The crystalline hydrate of the compound obtained in Example 1 and the amorphous cephalosporin obtained in Preparation Example were stored at 50°C. After the respective periods of one week and two weeks, the heat stability of the compounds was measured by determining their level of decomposition through the use of liquid chromatography.

Row | Compound | MIC [1] [µg/mL] | MIC [4] [µg/mL] | MIC [5] [µg/mL] | MIC [7] [µg/mL] | MIC [8] [µg/mL] | MIC [9] [µg/mL] | MIC [13] [µg/mL] | MIC [16] [µg/mL] | MIC [17] [µg/mL] | MIC [18] [µg/mL] | MIC [19] [µg/mL] | MIC [21] [µg/mL] | Decomposition Rate ([26]; storage period (50°C): 0) [%] | Decomposition Rate ([26]; storage period (50°C): 1 week) [%] | Decomposition Rate ([26]; storage period (50°C): 2 week) [%] | also measured
1 | Cc1c(N)nc(SCC2=C(C(=O)[O-])N3C(=O)C(NC(=O)/C(=N\OC(C)(C)C(=O)O)c4csc(N)n4)[C@H]3SC2)[n+](N)c1N (stereo partly shown) [Test Compound, 7-[(Z)-2-(2-aminothiazole-4-yl)-2-(2-carboxyprop-2-oxyimino)acetamido]-3-(5-methyl-1,4,6-triaminopyrimidinium-2-yl)thiomethyl-3-cephem-4-carboxylate] | 1 (≈ 1.57 µM) | 0.016 (≈ 0.0251 µM) | 0.25 (≈ 0.391 µM) | 0.031 (≈ 0.0485 µM) | 0.031 (≈ 0.0485 µM) | 0.016 (≈ 0.0251 µM) | 0.031 (≈ 0.0485 µM) | 0.5 (≈ 0.783 µM) | 0.5 (≈ 0.783 µM) | 0.063 (≈ 0.0986 µM) | 0.063 (≈ 0.0986 µM) | 0.031 (≈ 0.0485 µM) | 0 | 0.4 | 0.9 | MIC ([2]; Bacillus cereus, ATCC11778, 20 h, read-out: MIC): 64 µg/mL (≈ 100 µM); MIC [3]: 0.13 µg/mL (≈ 0.204 µM); MIC ([6]; Enterobacter cloacae, ATCC27508, 20 h, read-out: MIC): ≤ 0.008 µg/mL; MIC ([10]; Micrococcus luteus, ATCC9341, 20 h, read-out: MIC): 0.25 µg/mL (≈ 0.391 µM); MIC ([11]; read-out: MIC): ≤ 0.008 µg/mL; MIC ([12]; Proteus mirabilis, ATCC25933, 20 h, read-out: MIC): 0.016 µg/mL (≈ 0.0251 µM); MIC ([14]; read-out: MIC): ≤ 0.008 µg/mL; MIC ([15]; Pseudomonas aeruginosa, ATCC10145, 20 h, read-out: MIC): 1 µg/mL (≈ 1.57 µM); MIC ([20]; Shigella flexneri, ATCC11836, 20 h, read-out: MIC): 0.016 µg/mL (≈ 0.0251 µM); MIC ([22]; read-out: MIC): 2 µg/mL (≈ 3.13 µM); MIC ([23]; read-out: MIC): 4 µg/mL (≈ 6.26 µM); MIC ([24]; Streptococcus, ATCC12228, 20 h, read-out: MIC): 1 µg/mL (≈ 1.57 µM); MIC ([25]; Enterococcus faecalis, read-out: MIC): > 128 µg/mL
2 | Cc1c(N)nc(SCC2=C(C(=O)[O-])N3C(=O)C(NC(=O)/C(=N\OC(C)(C)C(=O)O)c4csc(N)n4)[C@H]3SC2)[n+](N)c1N (stereo partly shown) [Amorphous Compound, 7-[(Z)-2-(2aminothiazole-4-yl)-2-(2-carboxyprop-2-oxyimino)acetamido]-3-(5-methyl-1,4,6-triamino-pyrimidinium-2-yl)thiomethyl-3-cephem-4-carboxylate, reference compound] | 4 (≈ 6.26 µM) | 0.063 (≈ 0.0986 µM) | 1 (≈ 1.57 µM) | 0.063 (≈ 0.0986 µM) | 0.13 (≈ 0.204 µM) | 0.063 (≈ 0.0986 µM) | 0.063 (≈ 0.0986 µM) | 2 (≈ 3.13 µM) | 2 (≈ 3.13 µM) | 0.13 (≈ 0.204 µM) | 0.13 (≈ 0.204 µM) | 0.063 (≈ 0.0986 µM) | 0 | 4.2 | 5.2 | MIC [2]: 128 µg/mL (≈ 200 µM); MIC [6]: 0.016 µg/mL (≈ 0.0251 µM); MIC [10]: 0.5 µg/mL (≈ 0.783 µM); MIC [11]: <=0.008 mcg/ml; MIC [12]: 0.031 µg/mL (≈ 0.0485 µM); MIC [14]: <=0.008 mcg/ml; MIC [15]: 2 µg/mL (≈ 3.13 µM); MIC [20]: 0.031 µg/mL (≈ 0.0485 µM); MIC [22]: 2 µg/mL (≈ 3.13 µM); MIC [23]: 4 µg/mL (≈ 6.26 µM); MIC [24]: 2 µg/mL (≈ 3.13 µM); MIC [25]: >128 µg/mL
